Data from patent publication US20020168389A1, “Stable skin conditioning compositions containing retinoid boosters” (priority 2000, published 2002).

Legend:
[1] = system: TGase I; experiment: Transglutaminase (TGase I ELISA) assay in cultured keratinocytes with retinol; assay type: cell-based; details: Keratinocyte, read-out: Overall TG (IC 50)
[2] = system: Retinal Reductase; experiment: Assay for Retinal Reductase Activity, rat liver microsomes (to identify B3); assay type: biochemical; details: test compound final 100 μM
Protocol: The resulting homogenate was successively centrifuged for 30 min. at 10,000 g, 30 min. at 20,000 g, and 15 min. at 30,000 g, and the resulting supernatant was ultracentrifuged for 80 min. at 105,000 g. […] Protein concentrations were determined as described above. […] All stock solution were prepared as above with the following substitutions: 10 mM all trans Retinaldehyde (Sigma R2500) in DMSO—instead of retinol. 200 mM, Nicotinamide adenine dinucleotide phosphate, reduced form, tetrasodium salt (NADPH) (Sigma N7505) in sterile water—instead of NADP. In a two-dram glass vial with screw cap, add the following in order: […] 25 μl diluted Microsomes (final=100 μg)—use boiled Microsomes for controls and regular Microsomes for test samples. […] 3 μl of 10 mM retinaldehyde (final=75 μM) Follow the same incubation and extraction procedure as detailed above. […] Aliquots of 60 μL were injected immediately and analyzed for retinoid content. The chromatography instrumentation consisted of a Waters 600 gradient controller/pump, a Waters 996 Photodiode Array detector and a Waters 474 Scanning Fluorescence detector. Two HPLC protocols were used for retinoid analysis. […] The eluate was monitored for absorbance at 325 nm and fluorescence at 325 ex/480 em. […] B. Barua, “Analysis of Water-Soluble Compounds: Glucuronides”, Methods Enzymol. 189, 136-145 (1990). […] These protocols were selected based on their ability to clearly resolve pertinent retinoid acids, alcohols, aldehydes, and/or esters for each assay and relative quickness of separation. Identification of individual retinoids by HPLC was based on an exact match of the retention time of unknown peaks with that of available authentic retinoid standards and UV spectra analysis (300-400 nm) of unknown peaks against available authentic retinoids.

[3] = system: Retinol Dehydrogenase; experiment: Assay for Retinol Dehydrogenase Activity, rat liver microsomes (to identify B2); assay type: biochemical; details: ranking among B2 compounds
Protocol: The resulting homogenate was successively centrifuged for 30 min. at 10,000 g, 30 min. at 20,000 g, and 15 min. at 30,000 g, and the resulting supernatant was ultracentrifuged for 80 min. at 105,000 g. […] Protein concentrations were determined as described above.
2.4 Assay for Retinol Dehydrogenase Activity (To identify B2)
The following stock solutions were prepared:
50 mM KH2PO4, pH 7.4 buffer, sterile filtered.
10 mM all trans Retinol (Sigma R7632) in DMSO.
200 mM Nicotinamide adenine dinucleotide phosphate, sodium salt (NADP) (Sigma N0505) in sterile water.
40 mM test compound in appropriate solvent (water, buffer, ethanol, chloroform or DMSO).
1:10 dilution of rat liver Microsomes in 50 mM KH2PO4, pH 7.4 buffer (4 ug/ul).
In a two-dram glass vial with screw cap, add the following in order:
Buffer to give a final volume of 400 μl
25 μl diluted Microsomes (final=100 μg)−use boiled Microsomes for controls and regular Microsomes for test samples.
4 μl of 200 mM NADP (final=2 mM)
1 μl of 40 mM test compound (final=100 μM)
8 μl of 10 mM retinol (final=200 μM) […]
Aliquots of 60 μL were injected immediately and analyzed for retinoid content.
The chromatography instrumentation consisted of a Waters 600 gradient controller/pump, a Waters 996 Photodiode Array detector and a Waters 474 Scanning Fluorescence detector. […] The eluate was monitored for absorbance at 325 nm and fluorescence at 325 ex/480 em. […]

Row | Molecule | % lnhibition Retinal Reductase [2] [%] | other results
1 | Oc1cccc2cccnc12 [Hydroxyquinoline, Hydroxyquinoline (Carbostyril)] |  | IC50 [1]: 364 µM
2 | CCCCCCCCCCCCCC(=O)O [Myristic Acid] | 26 | 
3 | COc1cc(C=O)ccc1O [Vanillin] | 6 | 
4 | Phosphatidyl Choline |  | activity as activator of Retinol Dehydrogenase (in words) [3]: Most preferred as most active activator of
5 | Phosphatidyl ethanolamine | 37 | 
